Data: patent US8268813B2, “Zilpaterol enantiomer compositions and methods of making and using such compositions” (Intervet International B.V., priority 2006, dated 2012)
Several values for one entry are separate records, joined by “and”; a condition that tells them apart may be missing. Equal entries are not always repeated. Where two headings read alike, the source gives them in different places.

Legend:
human μ-opioid receptor = molecular target: T1, human μ-opioid receptor (Homo sapiens, UniProt P35372); test: Radioligand binding assay, [3H]DAMGO, transfected HEK-293 cell membranes
T1 construct: expressed in transfected cells; host or cells: HEK-293 cells; membrane homogenates
T1 sequence (P35372 whole entry): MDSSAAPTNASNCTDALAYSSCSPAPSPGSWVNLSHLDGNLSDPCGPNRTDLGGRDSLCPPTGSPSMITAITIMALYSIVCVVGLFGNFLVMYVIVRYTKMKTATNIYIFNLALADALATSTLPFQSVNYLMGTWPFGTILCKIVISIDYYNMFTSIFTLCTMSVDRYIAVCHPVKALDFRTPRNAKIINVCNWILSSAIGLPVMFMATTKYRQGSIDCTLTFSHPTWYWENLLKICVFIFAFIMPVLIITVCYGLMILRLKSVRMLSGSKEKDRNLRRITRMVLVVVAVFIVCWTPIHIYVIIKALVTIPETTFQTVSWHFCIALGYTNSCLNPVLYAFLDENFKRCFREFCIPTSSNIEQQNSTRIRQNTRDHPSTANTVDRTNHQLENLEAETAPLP
Description: This investigation was conducted using a radioligand binding assay.
Non-specific binding was determined in the presence of 10 μM naloxone. Assay volume and format was 250 μl in 96-well plate. The test compound was added as a 10-fold concentrated solution, and the maximum tolerable DMSO concentration was 1%. Following incubation, the samples were filtered rapidly under vacuum through glass fiber filters (GF/B, Packard), pre-soaked with 0.3% PEI, and rinsed several times with ice-cold 50 mM Tris-HCl using a 96-sample cell harvester (Unifilter, Packard). The filters were dried, and counted for radioactivity in a scintillation counter (Topcount, Packard) using a scintillation cocktail (Microscint 0, Packard). The results were expressed as percent inhibition of the control radioligand specific binding.
Specific ligand binding to the receptors is the difference between the total binding and the non-specific binding determined in the presence of an excess of unlabelled ligand. The results are expressed as a percent of control specific binding and as a percent inhibition of control specific binding obtained in the presence of the test compounds.
The IC50 values (concentration causing a half-maximal inhibition of control specific binding) and Hill coefficients (nH) were determined by non-linear regression analysis of the competition curves using Hill equation curve fitting. […] Here, L is the concentration of radioligand in the assay, and KD is the affinity of the radioligand for the receptor.

μ-opioid receptor = test: Functional ex-vivo isolated organ bioassay (Guinea pig ileum), μ-opioid agonist response; conditions: Applicants believe results may be faulty
[1] = molecular target: β2 adrenergic receptors in guinea pig trachea (Cavia porcellus, UniProt Q8K4Z4)
Chain of β2 adrenergic receptors in guinea pig trachea (Q8K4Z4 whole entry): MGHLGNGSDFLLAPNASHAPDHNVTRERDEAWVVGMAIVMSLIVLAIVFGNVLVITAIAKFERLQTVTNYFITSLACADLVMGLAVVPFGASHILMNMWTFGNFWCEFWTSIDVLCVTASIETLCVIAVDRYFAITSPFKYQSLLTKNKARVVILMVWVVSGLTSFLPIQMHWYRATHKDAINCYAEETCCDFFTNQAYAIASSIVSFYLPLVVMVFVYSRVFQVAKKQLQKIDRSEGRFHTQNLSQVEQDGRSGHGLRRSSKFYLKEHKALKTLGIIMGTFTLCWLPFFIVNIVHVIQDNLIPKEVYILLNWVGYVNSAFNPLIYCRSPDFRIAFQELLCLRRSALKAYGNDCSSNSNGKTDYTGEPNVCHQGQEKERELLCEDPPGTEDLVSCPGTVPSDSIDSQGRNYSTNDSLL
Description: In this experiment, β2 adrenergic receptor agonist activities were functionally determined using a quantitative ex-vivo guinea pig trachea bioassay. […] Following extensive washings and recovery to the initial state, the tissues were exposed to a single or several cumulative concentrations of the test compounds or the same agonist. Each concentration was left in contact with the tissues until a stable response was obtained. […] Assay volume and format was 20 ml organ baths. […] Following washings, the tissues were contracted again with carbachol, and then exposed to increasing concentrations of the test compound or the same agonist. […] If it occurred, a recovery of contraction by the test compound indicated an antagonist activity at the β2 receptors. The parameter measured was the maximal change in tension induced by each compound concentration. […] The agonist efficacy and potency of the test compounds were evaluated respectively in terms of Emax values (maximum response) and EC50 values (concentration producing a half-maximum response). These were determined from the concentration-response curves.

[2] = Table 12, test concentration 1.0E−03 M
[3] = Table 12, test concentration 1.0E−04 M
[4] = Table 12, test concentration 1.0E−05 M
[5] = Table 12, test concentration 1.0E−06 M
[6] = Table 12, test concentration 3.0E−05 M
[7] = Table 12, test concentration 3.0E−06 M
[8] = Table 12, test concentration 3.0E−07 M
[9] = Table 12, test concentration 3.0E−08 M
[10] = calculated from the data in Table 12
[11] = first assay, test concentration 1.0E−05 M
[12] = repeat assay, test concentration 1.0E−03 M
[13] = Table 12, test concentration 3.0E−04 M

Structure (SMILES) | IC50 (human μ-opioid receptor) [µM] | Ki (human μ-opioid receptor) [µM] | binding to the μ-opioid receptor (human μ-opioid receptor) | % of Control Specific Binding, Mean (human μ-opioid receptor; [2]) [%] | % of Control Specific Binding, Run 1 (human μ-opioid receptor; [2]) [%] | % of Control Specific Binding, Run 2 (human μ-opioid receptor; [2]) [%] | % of Control Specific Binding, Mean (human μ-opioid receptor; [3]) [%] | % of Control Specific Binding, Run 1 (human μ-opioid receptor; [3]) [%] | % of Control Specific Binding, Run 2 (human μ-opioid receptor; [3]) [%] | % of Control Specific Binding, Mean (human μ-opioid receptor; [4]) [%] | % of Control Specific Binding, Run 1 (human μ-opioid receptor; [4]) [%] | % of Control Specific Binding, Run 2 (human μ-opioid receptor; [4]) [%] | % of Control Specific Binding, Mean (human μ-opioid receptor; [5]) [%] | % of Control Specific Binding, Run 2 (human μ-opioid receptor; [5]) [%] | % of Control Specific Binding, Mean (human μ-opioid receptor; [6]) [%] | % of Control Specific Binding, Run 1 (human μ-opioid receptor; [6]) [%] | % of Control Specific Binding, Run 2 (human μ-opioid receptor; [6]) [%] | % of Control Specific Binding, Run 1 (human μ-opioid receptor; [7]) [%] | % of Control Specific Binding, Run 2 (human μ-opioid receptor; [7]) [%] | % of Control Specific Binding, Mean (human μ-opioid receptor; [8]) [%] | further results
CC(C)NC1CCn2c(=O)[nH]c3cccc(c32)C1O (racemic) [Racemic trans, 4,5,6,7-tetrahydro-7-hydroxy-6-(isopropylamino)imidazo[4,5,1-jk]-[1]benzazepin-2(1H)-one, reference compound] | 31 | 13 | greater binding | 2.9 | 2.4 | 3.3 | 23.7 | 24.5 | 22.9 | 73.7 | 76.7 | 70.8 | 90.0 | 95.1 | 47.5 | 49.3 | 45.6 | 76.2 | 87.4 | 91.2 | % of Control Specific Binding, Run 1 (human μ-opioid receptor; [5]): 84.9%; % of Control Specific Binding, Mean (human μ-opioid receptor; [7]): 81.8%; % of Control Specific Binding, Run 1 (human μ-opioid receptor; [8]): 92.1%; % of Control Specific Binding, Mean (human μ-opioid receptor; [9]): 98.3%; % of Control Specific Binding, Run 1 (human μ-opioid receptor; [9]): 105.8%; % of Control Specific Binding, Run 2 (human μ-opioid receptor; [9]): 90.9%; nH (Hill coefficient) (human μ-opioid receptor; [10]): 0.9; % Inhibition of Control Specific Binding (human μ-opioid receptor; [11]): 24%; % of Control Specific Binding, Mean (human μ-opioid receptor; [11]): 76.2%; % of Control Specific Binding, Run 1 (human μ-opioid receptor; [11]): 76.2%; % of Control Specific Binding, Run 2 (human μ-opioid receptor; [11]): 76.2%; % Inhibition of Control Specific Binding (human μ-opioid receptor; [12]): 98%; % of Control Specific Binding, Mean (human μ-opioid receptor; [12]): 2.2%; % of Control Specific Binding, Run 1 (human μ-opioid receptor; [12]): 1.6%; % of Control Specific Binding, Run 2 (human μ-opioid receptor; [12]): 2.9%
CC(C)N[C@@H]1CCn2c(=O)[nH]c3cccc(c32)[C@H]1O (single isomer, unassigned) [6R,7R enantiomer, 6R,7R zilpaterol enantiomer] | 320 | 130 | binds weakly | 24.1 | 23.0 | 25.2 | 71.1 | 71.3 | 70.8 | 81.3 | 80.4 | 82.1 | 89.3 | 87.5 | 80.7 | 73.9 | 87.5 | 92.1 | 88.7 | 93.6 | % of Control Specific Binding, Mean (human μ-opioid receptor; [13]): 43.5%; % of Control Specific Binding, Run 2 (human μ-opioid receptor; [13]): 40.4%; % of Control Specific Binding, Run 1 (human μ-opioid receptor; [8]): 94.8%; % of Control Specific Binding, Run 2 (human μ-opioid receptor; [8]): 92.4%; nH (Hill coefficient) (human μ-opioid receptor; [10]): 0.9; Ki (human μ-opioid receptor; calculated from the data in Table 12, Cheng Prusoff): 130 µM; % Inhibition of Control Specific Binding (human μ-opioid receptor; [11]): 7%; % of Control Specific Binding, Mean (human μ-opioid receptor; [11]): 92.9%; % of Control Specific Binding, Run 1 (human μ-opioid receptor; [11]): 90.8%; % of Control Specific Binding, Run 2 (human μ-opioid receptor; [11]): 95.0%; % Inhibition of Control Specific Binding (human μ-opioid receptor; [12]): 82%; % of Control Specific Binding, Mean (human μ-opioid receptor; [12]): 17.9%; % of Control Specific Binding, Run 1 (human μ-opioid receptor; [12]): 17.8%; % of Control Specific Binding, Run 2 (human μ-opioid receptor; [12]): 18.0%; μ-opioid agonist response (μ-opioid receptor): greater μ-opioid agonist response than both the 6S,7S zilpaterol enantiomer and racemic trans zilpaterol
CC(C)N[C@H]1CCn2c(=O)[nH]c3cccc(c32)[C@@H]1O [6S,7S enantiomer, 6S,7S zilpaterol enantiomer] | 17 | 7 | greater binding | 1.2 | 1.4 | 0.9 | 16.4 | 15.9 | 16.9 | 60.2 | 61.1 | 59.2 | 87.7 | 84.6 | 36.1 | 34.9 | 37.2 | 81.0 | 77.2 | 95.3 | % of Control Specific Binding, Run 1 (human μ-opioid receptor; [5]): 90.9%; % of Control Specific Binding, Mean (human μ-opioid receptor; [7]): 79.1%; % of Control Specific Binding, Run 1 (human μ-opioid receptor; [8]): 97.5%; % of Control Specific Binding, Run 2 (human μ-opioid receptor; [8]): 93.2%; % of Control Specific Binding, Mean (human μ-opioid receptor; [9]): 95.8%; % of Control Specific Binding, Run 1 (human μ-opioid receptor; [9]): 93.9%; % of Control Specific Binding, Run 2 (human μ-opioid receptor; [9]): 97.7%; nH (Hill coefficient) (human μ-opioid receptor; [10]): 0.9; % Inhibition of Control Specific Binding (human μ-opioid receptor; [11]): 34%; % of Control Specific Binding, Mean (human μ-opioid receptor; [11]): 66.3%; % of Control Specific Binding, Run 1 (human μ-opioid receptor; [11]): 67.2%; % of Control Specific Binding, Run 2 (human μ-opioid receptor; [11]): 65.4%; % Inhibition of Control Specific Binding (human μ-opioid receptor; [12]): 100%; % of Control Specific Binding, Mean (human μ-opioid receptor; [12]): 0.2%; % of Control Specific Binding, Run 1 (human μ-opioid receptor; [12]): 0.1%; % of Control Specific Binding, Run 2 (human μ-opioid receptor; [12]): 0.4%
C[C@@H](NC(=O)[C@@H](N)Cc1ccc(O)cc1)C(=O)NCC(=O)N(C)[C@@H](Cc1ccccc1)C(=O)NCCO [DAMGO, reference compound] | – | – | – | – | – | – | – | – | – | – | – | – | – | – | – | – | – | – | – | – | nH (Hill coefficient) (human μ-opioid receptor; reference compound, three independent experiments): 1.0 and 0.9
CC(C)(C)NCC(O)c1ccc(O)c(CO)c1 (centres unmarked) [Salbutamol, salbutamol] | – | – | – | – | – | – | – | – | – | – | – | – | – | – | – | – | – | – | – | – | Percent of the Control Response to Salbutamol at 3.0E−07 M, Mean ([1]; Table 6, concentration 3.0E−08 M): 50%; Percent of the Control Response to Salbutamol at 3.0E−07 M, Mean ([1]; Table 6, concentration 3.0E−09 M): 8%; Percent of the Control Response to Salbutamol at 3.0E−07 M, Mean ([1]; Table 6, highest concentration 3.0E−07 M + ICI 118551 3.0E−07 M): 2%; Percent of the Control Response to Salbutamol at 3.0E−07 M, Mean ([1]; Table 7, concentration 3.0E−08 M): 53%; Percent of the Control Response to Salbutamol at 3.0E−07 M, Mean ([1]; Table 7, concentration 3.0E−09 M): 11%; Percent of the Control Response to Salbutamol at 3.0E−07 M, Mean ([1]; Table 7, highest concentration 3.0E−07 M + ICI 118551 3.0E−07 M): 5%
